Columns and labels:
[1] = tested on: mouse model with collagen-induced arthritis; experiment: Arthritis index score in mouse model with collagen-induced arthritis (CIA); format: in vivo
Description: (§1) For the construction of a mouse model with collagen-induced arthritis (hereinafter, referred to as “CIA”), a 6-week old male DBA/1J mouse was subjected to primary immunization by intradermal injection after mixing the bovine type II collagen (hereinafter, referred to as “CII”) and complete Freud's adjuvant (CFA) in an amount of 100 μL, respectively. After a week thereafter, halofuginone was injected intraperitoneally at 3 day intervals at a concentration of 100 μg/kg and 500 μg/kg, respectively (9 weeks).
(§2) To examine the therapeutic effect of treating halofuginone of the present invention on arthritis, the clinical score of the joint inflammation of the mouse prepared in Example <1-1> (the mouse with arthritis injected with halofuginone) was measured while observing the mouse. The group treated with a solution in which DMSO was diluted in saline was used as the control group.
The clinical score was evaluated using a clinical score system, in which the respective score for swelling and redness on toes or caudal regions was determined by observing daily the degree of the progress of the joint inflammation on the arthritis lesion of the mouse by the naked eye.

[2] = tested on: joint tissue of mouse with arthritis; experiment: Degree of joint destruction by immunohistochemical staining of CIA mouse joints; format: in vivo; details: CIA mice, according to the concentration of treatment, FIG. 1B
Description: as §1
as §2, with “the” for “the clinical score of the joint inflammation of the”, “sacrificed and” for “measured while observing”, “degree of joint destruction was analyzed via immunohistochemical staining method.” for “mouse.”
The immunohistochemical staining method was performed by the process shown below. The joints of the mice group used above were collected, fixed with 10% neutral buffered formalin, the bones were decalcified with EDTA and embedded in paraffin, the joint tissue was prepared into 7 μm-thick slices and attached to slides. […] The immunohistochemical staining method was used in the joints of mice and analyzed under an optical microscope. […]

[3] = tested on: IL-17 and IL-6; experiment: Inflammatory cytokines IL-17 and IL-6 in joint tissue staining / sera ELISA of CIA mice; format: in vivo, mouse; details: FIG. 1C
Description: as §1

[4] = tested on: Th17- and Treg cells in splenocytes; experiment: Th17 and Treg cells, pSTAT3 and pSTAT5 in splenocytes of CIA mice by immunostaining and confocal microscope; format: in vivo, mouse
Description: as §1
To examine the effect of halofuginone treatment in an animal model on Th17 and Treg factors, the measurement was performed using a confocal microscope after the immunostaining. Specifically, the spleens of the mice in the experimental group and control group in Examples were collected and embedded with an OCT compound, and the tissues rapidly cooled using liquid nitrogen were sliced into a thickness of 7 μm using a cryo microtome, and attached to slides. The sliced sections attached to the slides were fixed with acetone, and non-specific binding was blocked by reacting with 10% normal goat serum for 30 minutes. The first antibodies, i.e., FITC-labeled anti-Foxp3 Ab, PElabeled anti-IL-17 Ab APC-labeled anti-CD4 Ab, Allophycocyanin-labeled anti-CD25 Ab (Biolegend), biotinylated anti-CD4 Ab (BD Biosciences, San Jose, Calif., USA), were diluted in PBS (pH 7.5) at a 1:100 ratio and reacted at 4° C. overnight. On the next day, the resultant was washed with PBS and reacted with streptavidin cy-3 at room temperature for 2 hours. The stained tissues were analyzed using a confocal microscope (LSM 510 Meta. Zeiss, Gottingen, Germany), and the number of IL-17+ cells and Foxp3+ cells were scored under a microscopic observation, and the results are shown in graphs. Meanwhile, pSTAT3 and pSTAT5 were immunostained in the same manner as described above and the measurement was performed using a confocal microscope, and in particular, PE-conjugated anti-phospho-Stat3 (Y705 and S727; 1:50), and Alexa Fluor 488-conjugated anti-phospho-Stat5 (Y694; 1:100) (all from BD Biosciences) antibodies were used.

[5] = tested on: IL-17 and Foxp3 genes; experiment: Expression of IL-17 and Foxp3 genes in splenocytes and draining lymph nodes by RT-PCR; format: in vivo, mouse; details: mRNA, splenocytes and draining lymph nodes of CIA mice, FIG. 2C
Description: as §1
To examine the effect of halofuginone treatment in an animal model, the RNA in the splenocytes and draining lymph nodes were extracted using the Trizol reagent, and the expression of IL-17and Foxp3 genes was confirmed by RT-PCR.
The real-time PCR was performed using the LightCycler 2.0 System Instrument and the reaction compounds were prepared by mixing 1 μL of each cDNA, 10 μL of premix Ex Taq as an enzyme for the initiation, and each primer pair to a final volume of 20 μL using distilled water. […] The values of cycle threshold (Ct) were analyzed and the amount of mRNA expression for each target was indicated in terms of the amount of beta-actin mRNA expression and the relative quantity. […]

[6] = tested on: osteoclasts (TRAP positive cells) in the joint; experiment: Osteoclast differentiation potential in the joint of arthritis animal model by TRAP staining; format: in vivo, mouse; details: joint of CIA mice, FIG. 4A
Description: as §1
To examine the osteoclast differentiation potential in the joint of the animal model with arthritis by TRAP staining, the marker enzyme of osteoclasts were subjected to TRAP staining using the leukocyte acid phosphatase Kit (387-A, Sigma, St. Louis, Mo., USA) according to the manufacturer's manual. The cells having at least 5 nuclei among the TRAP positive cells (red color) were regarded as osteoclasts.

[7] = tested on: mononuclear cells of human peripheral blood; experiment: Differentiation of osteoclasts in mononuclear cells of human peripheral blood: TRAP staining and real-time PCR; format: cell-based; details: M-CSF, RANKL, 9 days
Description: The mononuclear cells of human peripheral blood were cultured for 9 days after stimulating with M-CSF, RANKL, and halofuginone. Then, the cells were stained by TRAP according to the manufacturer's manual, and the amount of mRNA of TRAP, NFATc1, calcitonin receptor (CTR), cathepsin K, MMP9, and RANK were confirmed by real-time PCR.

[8] = CD4+ cells of splenocytes of CIA mice, immunostaining
[9] = splenocytes of CIA mice injected with halofuginone, FIG. 2A
[10] = dose-dependent, FIGS. 6B and 6C

## O=C(C[C@H]1NCCC[C@@H]1O)Cn1cnc2cc(Br)c(Cl)cc2c1=O (racemic) [halofuginone]
[1]; CIA DBA/1J mice, 100 and 500 μg/kg intraperitoneally at 3 day intervals, vs DMSO in saline control, FIG. 1A
  arthritis index score: decrease in the arthritis index score in a dose-dependent manner
[1]; CIA mice, 500 μg/kg
  arthritis lesion by the naked eye: no arthritis lesion at all
[2]
  joint destruction: significantly decrease
[3]
  level of inflammatory cytokine IL-6: significantly decrease
  level of inflammatory cytokine IL-17: significantly decrease
[4]; [8]
  expression of pSTAT3: decreased
  expression of pSTAT5: increased
[4]; [9]
  number of Th17 cells: decreased
  number of Treg cells: increased
[5]
  expression of Foxp3: increased
  expression of IL-17: decreased
[6]
  number of TRAP positive cells: decreased
[7]
  differentiation of osteoclasts: effectively inhibit
[7]; [10]
  mRNA expression of MMP9: decreased
  mRNA expression of NFATc1: decreased
  mRNA expression of RANK: decreased
  mRNA expression of TRAP: decreased
  mRNA expression of calcitonin receptor(CTR): decreased
  mRNA expression of cathepsin K: decreased

— patent US20160220567A1, “COMPOSITION FOR TREATING OR PREVENTING BONE DISEASES, COMPRISING HALOFUGINONE AS ACTIVE INGREDIENT” (THE CATHOLIC UNIVERSITY OF KOREA INDUSTRY-ACADEMIC …, priority 2013, published 2016)
